Test results: patent publication US10457685B2, “[1,2,3]triazolo[4,5-D]pyrimidine derivatives with affinity for the type-2 cannabinoid receptor” (Hoffmann-La Roche Inc., priority 2016, dated 2019)

Experiments:
[1] = target: human CB1 receptor (CNR1) (Homo sapiens (Human), UniProt P21554); assay: Radioligand binding assay ([3H]-CP-55,940), membranes of HEK cells expressing human CNR1; settings: 1.5 nM [3H]-CP-55,940, HEK cell membranes, 1 h at 30° C.
Method: (§1) Radioligand Binding Assay
(§2) The affinity of the compounds of the invention for cannabinoid receptors was determined using recommended amounts of membrane preparations (PerkinElmer) of human embryonic kidney (HEK) cells expressing the human CNR1 or CNR2 receptors in conjunction with 1.5 or 2.6 nM [3H]-CP-55,940 (Perkin Elmer) as radioligand, respectively. Binding was performed in binding buffer (50 mM Tris, 5 mM MgCl2, 2.5 mM EDTA, and 0.5% (wt/vol) fatty acid free BSA, pH 7.4 for CB1 receptor and 50 mM Tris, 5 mM MgCl2, 2.5 mM EGTA, and 0.1% (wt/vol) fatty acid free BSA, pH 7.4 for CB2 receptor) in a total volume of 0.2 mL for 1 h at 30° C. shaking. The reaction was terminated by rapid filtration through microfiltration plates coated with 0.5% polyethylenimine (UniFilter GF/B filter plate; Packard). Bound radioactivity was analyzed for Ki using nonlinear regression analysis (Activity Base, ID Business Solution, Limited), with the Kd values for [^3H]CP55,940 determined from saturation experiments.

[2] = target: human CB2 receptor (CNR2) (Homo sapiens (Human), UniProt P34972); assay: Radioligand binding assay ([3H]-CP-55,940), membranes of HEK cells expressing human CNR2; settings: 2.6 nM [3H]-CP-55,940, HEK cell membranes, 1 h at 30° C.
human CB2 receptor (CNR2), sequence (P34972 whole entry): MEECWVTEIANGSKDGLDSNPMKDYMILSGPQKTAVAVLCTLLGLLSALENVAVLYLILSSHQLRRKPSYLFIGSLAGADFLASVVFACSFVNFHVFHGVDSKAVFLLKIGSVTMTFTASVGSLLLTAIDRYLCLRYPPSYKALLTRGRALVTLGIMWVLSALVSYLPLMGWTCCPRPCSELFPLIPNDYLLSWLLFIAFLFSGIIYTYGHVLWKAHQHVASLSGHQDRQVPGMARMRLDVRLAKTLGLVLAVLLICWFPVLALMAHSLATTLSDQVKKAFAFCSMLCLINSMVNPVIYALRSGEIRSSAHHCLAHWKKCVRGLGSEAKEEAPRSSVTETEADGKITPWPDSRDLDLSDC
Method: as §1, §2

human CB1 receptor (CNR1), sequence (P21554 whole entry): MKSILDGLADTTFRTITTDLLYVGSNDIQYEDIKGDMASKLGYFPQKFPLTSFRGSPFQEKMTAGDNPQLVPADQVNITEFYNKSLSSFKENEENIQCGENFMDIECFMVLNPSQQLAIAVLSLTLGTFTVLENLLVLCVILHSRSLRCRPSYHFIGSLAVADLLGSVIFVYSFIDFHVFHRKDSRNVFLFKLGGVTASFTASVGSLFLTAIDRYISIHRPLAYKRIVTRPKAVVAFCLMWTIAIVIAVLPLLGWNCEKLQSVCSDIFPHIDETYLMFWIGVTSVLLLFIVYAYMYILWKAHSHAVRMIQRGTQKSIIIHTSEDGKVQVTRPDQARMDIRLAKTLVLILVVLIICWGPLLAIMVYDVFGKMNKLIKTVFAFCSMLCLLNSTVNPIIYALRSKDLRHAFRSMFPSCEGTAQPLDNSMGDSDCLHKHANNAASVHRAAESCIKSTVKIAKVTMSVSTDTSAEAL

Row | SMILES | Ki [1] | Ki [2]
1 | CC(C)(C)c1nc(N2CCC(F)(F)C2)c2nnn(Cc3ccccc3CCS(=O)(=O)F)c2n1 [Example 31, 2-[2-[[5-tert-Butyl-7-(3,3-difluoropyrrolidin-1-yl)triazolo[4,5-d]pyrimidin-3-yl]methyl]phenyl]ethanesulfonyl fluoride] | 1360 nM | 27 nM
2 | CC(C)(C)c1nc(N2CCC(F)(F)C2)c2nnn(Cc3ccccc3CCSSc3ccccn3)c2n1 [Example 32, 5-tert-Butyl-7-(3,3-difluoropyrrolidin-1-yl)-3-[[2-[2-(pyridin-2-yldisulfanyl)ethyl]phenyl]methyl]triazolo[4,5-d]pyrimidine] | 1860 nM | 72 nM
3 | CC(C)(C)c1nc(N2CCC(F)(F)C2)c2nnn(Cc3ccccc3CCSSCCN)c2n1 [Example 33, 2-[2-[2-[[5-tert-Butyl-7-(3,3-difluoropyrrolidin-1-yl)triazolo[4,5-d]pyrimidin-3-yl]methyl]phenyl]ethyldisulfanyl]ethanamine] | 588 nM | 63 nM
4 | NCCSSCCc1ccccc1Cn1nnc2c(N3CCC(F)(F)C3)nc(C(F)(F)c3ccccc3)nc21 [Example 34, 2-[2-[2-[[5-[Difluoro(phenyl)methyl]-7-(3,3-difluoropyrrolidin-1-yl)triazolo[4,5-d]pyrimidin-3-yl]methyl]phenyl]ethyldisulfanyl]ethanamine] | 230 nM | 177 nM
5 | CC(C)(C)c1nc(N2CCC(F)(F)C2)c2nnn(Cc3ccccc3CCSSCC(O)CO)c2n1 (centres unmarked) [Example 35, 3-[2-[2-[[5-tert-Butyl-7-(3,3-difluoropyrrolidin-1-yl)triazolo[4,5-d]pyrimidin-3-yl]methyl]phenyl]ethyldisulfanyl]propane-1,2-diol] | 135 nM | 5 nM
6 | CC(C)(C)c1nc(N2CCC(F)(F)C2)c2nnn(Cc3ccccc3SSCCO)c2n1 [Example 36, 2-[[2-[[5-tert-Butyl-7-(3,3-difluoropyrrolidin-1-yl)triazolo[4,5-d]pyrimidin-3-yl]methyl]phenyl]disulfanyl]ethanol] | 560 nM | 95 nM
7 | C#Cc1cccc(S(=O)(=O)F)c1Cn1nnc2c(N3CCC(F)(F)C3)nc(C(C)(C)C)nc21 [Example 38, 2-[[5-tert-Butyl-7-(3,3-difluoropyrrolidin-1-yl)triazolo[4,5-d]pyrimidin-3-yl]methyl]-3-ethynylbenzenesulfonyl fluoride] | 311 nM | 1 nM
